Results on 2 compounds are retold here after ChEMBL document CHEMBL4673353, “Switching a Xanthine Oxidase Inhibitor to a Dual-Target Antagonist of P2Y and P2Y as an Oral Antiplatelet Agent with a Wider Therapeutic Window in Rats than Ticagrelor” (J Med Chem, 2020).

Series [1] concerns the target T1, CYP2A6 (Homo sapiens, UniProt P11509).
T1 sequence (P11509 whole entry): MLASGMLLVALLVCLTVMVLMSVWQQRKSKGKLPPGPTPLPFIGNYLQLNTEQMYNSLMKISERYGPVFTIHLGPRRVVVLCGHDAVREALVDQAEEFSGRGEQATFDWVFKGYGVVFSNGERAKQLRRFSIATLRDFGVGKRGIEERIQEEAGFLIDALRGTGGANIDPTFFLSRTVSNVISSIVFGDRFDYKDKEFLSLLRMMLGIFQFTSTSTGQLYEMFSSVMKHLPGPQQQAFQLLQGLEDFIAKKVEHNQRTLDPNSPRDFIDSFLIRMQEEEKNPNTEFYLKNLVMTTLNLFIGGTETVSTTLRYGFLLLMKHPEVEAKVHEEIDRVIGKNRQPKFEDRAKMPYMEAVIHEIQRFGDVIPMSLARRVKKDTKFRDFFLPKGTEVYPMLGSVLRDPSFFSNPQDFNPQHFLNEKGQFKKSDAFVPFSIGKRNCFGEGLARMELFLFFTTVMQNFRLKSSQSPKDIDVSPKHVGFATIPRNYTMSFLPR
The experiment in a line: Inhibition of CYP2A6 in human liver microsomes at 10 uM using coumarin as substrate preincubated for 5 mins followed by NADPH generating system addition and measured after 120 mins by LC-MS/MS analysis relative to control. It counts as ADME. The conditions noted are these: probe coumarin, time 125 min.

Series [2] concerns Plasma. The experiment in a line: Antiplatelet activity in rabbit platelet-rich plasma assessed as inhibition of ADP-induced platelet aggregation preincubated for 5 mins followed by ADP addition measured every 1 min for up to 6 mins by microplate reader analysis. It counts as functional, cell-free. The conditions noted are these: Oryctolagus cuniculus.
Series [3] is described as follows: Stability of compound in simulated gastric fluid assessed as parent compound remaining at 10 uM after 12 hrs by HPLC analysis relative to control.
A short description of series [4]: Stability of compound in simulated intestinal fluid assessed as parent compound remaining at 10 uM after 12 hrs by HPLC analysis relative to control.
A short description of series [5]: Metabolic stability of compound in rat liver microsomes assessed as elimination half-life at 0.2 uM in presence of NADPH by LC-MS/MS analysis. The following applies: read-out: beta t1/2. Format: ADME, Microsome. In general terms: Liver microsomes are vesicles of endoplasmic reticulum, rich in cytochrome P450 enzymes.
Series [6] can be described thus: Metabolic stability of compound in human liver microsomes assessed as elimination half-life at 0.2 uM in presence of NADPH by LC-MS/MS analysis. It counts as ADME, Microsome. The following applies: read-out: beta t1/2.
Series [7] concerns the target T2, CYP1A2 (Homo sapiens, UniProt P05177).
T2 sequence (P05177 whole entry): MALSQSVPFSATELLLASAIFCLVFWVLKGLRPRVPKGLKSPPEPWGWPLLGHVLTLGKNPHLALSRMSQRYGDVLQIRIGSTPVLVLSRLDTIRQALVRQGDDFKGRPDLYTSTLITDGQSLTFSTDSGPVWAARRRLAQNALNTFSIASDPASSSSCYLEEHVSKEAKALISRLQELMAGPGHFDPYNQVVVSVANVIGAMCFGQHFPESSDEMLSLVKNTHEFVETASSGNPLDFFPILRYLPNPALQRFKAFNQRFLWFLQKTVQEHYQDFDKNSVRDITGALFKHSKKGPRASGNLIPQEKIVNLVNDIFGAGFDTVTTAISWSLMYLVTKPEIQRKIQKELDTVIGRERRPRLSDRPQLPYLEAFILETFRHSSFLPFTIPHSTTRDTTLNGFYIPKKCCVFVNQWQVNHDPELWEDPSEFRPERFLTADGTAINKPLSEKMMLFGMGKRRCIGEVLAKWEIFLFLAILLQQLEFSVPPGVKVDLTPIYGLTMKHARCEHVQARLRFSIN
The experiment in a line: Inhibition of CYP1A2 in human liver microsomes at 10 uM using phenacetin as substrate preincubated for 5 mins followed by NADPH generating system addition and measured after 120 mins by LC-MS/MS analysis relative to control. The following applies: probe phenacetin, time 125 min. It counts as ADME.

Series [8] deals with CYP2C9 (Homo sapiens, UniProt P11712). The experiment in a line: Inhibition of CYP2C9 in human liver microsomes at 10 uM using tolbutamide as substrate preincubated for 5 mins followed by NADPH generating system addition and measured after 120 mins by LC-MS/MS analysis relative to control. The following applies: probe tolbutamide, time 125 min. Format: ADME.
The target in series [9] is CYP2C19 (Homo sapiens, UniProt P33261). The experiment in a line: Inhibition of CYP2C19 in human liver microsomes at 10 uM using S-mephenytoin as substrate preincubated for 5 mins followed by NADPH generating system addition and measured after 120 mins by LC-MS/MS analysis relative to control. Format: ADME. The following applies: probe S-mephenytoin, time 125 min.
For series [10], the target named is CYP2D6 (Homo sapiens, UniProt P10635). As to the kind of experiment: Inhibition of CYP2D6 in human liver microsomes at 10 uM using dextromethorphan as substrate preincubated for 5 mins followed by NADPH generating system addition and measured after 120 mins by LC-MS/MS analysis relative to control. Format: ADME. The following applies: probe dextromethorphan, time 125 min.

Series [11] addresses CYP2E1 (Homo sapiens, UniProt P05181). As to the kind of experiment: Inhibition of CYP2E1 in human liver microsomes at 10 uM using chlorzoxazone as substrate preincubated for 5 mins followed by NADPH generating system addition and measured after 120 mins by LC-MS/MS analysis relative to control. Format: ADME. The conditions noted are these: probe chlorzoxazone, time 125 min.

Series [12] addresses CYP3A4 (Homo sapiens, UniProt P08684). As to the kind of experiment: Inhibition of CYP3A4 in human liver microsomes at 10 uM using testosterone as substrate preincubated for 5 mins followed by NADPH generating system addition and measured after 120 mins by LC-MS/MS analysis relative to control. Format: ADME. The following applies: probe testosterone, time 125 min.
Series [13] can be described thus: Cmax in male Sprague-Dawley rat at 10 mg/kg, po administered as single dose by LC-MS analysis. It counts as ADME, organism-based. Also on record: route oral, dose 10 mg/kg. The conditions noted are these: in vivo.
The nature of series [14]: Tmax in male Sprague-Dawley rat at 10 mg/kg, po administered as single dose by LC-MS analysis. It counts as ADME, organism-based. The following applies: in vivo.
Series [15] can be described thus: AUC (0 to infinity) in male Sprague-Dawley rat at 10 mg/kg, po administered as single dose by LC-MS analysis. Format: ADME, organism-based. Also on record: route oral, time infinity, dose 10 mg/kg. The following applies: in vivo.
Series [16] in a line: Elimination half-life in male Sprague-Dawley rat at 10 mg/kg, po administered as single dose by LC-MS analysis. Format: ADME, organism-based. The conditions noted are these: in vivo, read-out: beta t1/2 (converted).
Series [17] can be described thus: Apparent volume of distribution in male Sprague-Dawley rat at 10 mg/kg, po administered as single dose by LC-MS analysis. It counts as ADME, organism-based. The conditions noted are these: in vivo.
Series [18] in a line: Clearance in male Sprague-Dawley rat at 10 mg/kg, po administered as single dose by LC-MS analysis. Format: ADME, organism-based. The following applies: in vivo.
In series [19] the test system is Rattus norvegicus. As to the kind of experiment: Antithrombotic activity in FeCl3-induced Sprague-Dawley rat model of arterial thrombosis assessed as reduction in thrombus weight at 10 mg/kg, po qd administered as single dose for 7 days and measured 2 hrs post last dose. Format: functional. Also on record: scale not given: the % may be the effect or the level left. The conditions noted are these: time 7 day.

The subject of series [20] is Rattus norvegicus. The experiment in a line: Antithrombotic activity in FeCl3-induced Sprague-Dawley rat model of arterial thrombosis assessed as reduction in thrombus weight administered orally once daily for 7 days and measured 2 hrs post last dose. It counts as functional. The following applies: dose 5-20 mg/kg.
The nature of series [21]: Toxicity in Sprague-Dawley rat model of tail-snip bleeding assessed as bleeding time at 10 mg/kg, po administered via gavage as single dose measured within 2 hrs post tail snip (reference value: 17.69 min). It counts as organism-based. The following applies: in vivo.

Chain of CYP2C19 (P33261 whole entry): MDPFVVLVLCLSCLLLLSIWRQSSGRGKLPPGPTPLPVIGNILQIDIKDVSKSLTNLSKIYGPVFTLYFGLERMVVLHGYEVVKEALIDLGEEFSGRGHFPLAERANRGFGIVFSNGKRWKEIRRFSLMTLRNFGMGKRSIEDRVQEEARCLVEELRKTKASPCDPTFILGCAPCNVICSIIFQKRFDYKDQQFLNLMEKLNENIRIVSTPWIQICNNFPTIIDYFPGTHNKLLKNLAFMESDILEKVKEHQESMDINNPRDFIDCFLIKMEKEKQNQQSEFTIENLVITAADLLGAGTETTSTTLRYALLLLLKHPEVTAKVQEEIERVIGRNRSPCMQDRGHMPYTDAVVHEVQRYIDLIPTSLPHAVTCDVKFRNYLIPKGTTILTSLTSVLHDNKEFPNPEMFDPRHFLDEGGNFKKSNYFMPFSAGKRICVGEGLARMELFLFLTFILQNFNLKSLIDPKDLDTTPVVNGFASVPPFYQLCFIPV
Chain of CYP2E1 (P05181 whole entry): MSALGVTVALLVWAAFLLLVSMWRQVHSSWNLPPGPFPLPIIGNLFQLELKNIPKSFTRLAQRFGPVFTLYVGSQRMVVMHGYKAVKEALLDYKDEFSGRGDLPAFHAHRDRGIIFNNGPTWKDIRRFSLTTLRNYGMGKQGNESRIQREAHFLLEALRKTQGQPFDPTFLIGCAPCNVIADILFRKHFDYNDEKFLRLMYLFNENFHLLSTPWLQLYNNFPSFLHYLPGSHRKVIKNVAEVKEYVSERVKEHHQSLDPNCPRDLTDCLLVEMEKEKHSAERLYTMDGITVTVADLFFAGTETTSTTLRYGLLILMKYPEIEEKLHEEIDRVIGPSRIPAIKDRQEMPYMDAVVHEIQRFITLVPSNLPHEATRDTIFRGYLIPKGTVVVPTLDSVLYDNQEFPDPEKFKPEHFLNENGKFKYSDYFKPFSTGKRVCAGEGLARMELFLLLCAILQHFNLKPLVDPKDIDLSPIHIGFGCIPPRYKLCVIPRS
Chain of CYP2C9 (P11712 whole entry): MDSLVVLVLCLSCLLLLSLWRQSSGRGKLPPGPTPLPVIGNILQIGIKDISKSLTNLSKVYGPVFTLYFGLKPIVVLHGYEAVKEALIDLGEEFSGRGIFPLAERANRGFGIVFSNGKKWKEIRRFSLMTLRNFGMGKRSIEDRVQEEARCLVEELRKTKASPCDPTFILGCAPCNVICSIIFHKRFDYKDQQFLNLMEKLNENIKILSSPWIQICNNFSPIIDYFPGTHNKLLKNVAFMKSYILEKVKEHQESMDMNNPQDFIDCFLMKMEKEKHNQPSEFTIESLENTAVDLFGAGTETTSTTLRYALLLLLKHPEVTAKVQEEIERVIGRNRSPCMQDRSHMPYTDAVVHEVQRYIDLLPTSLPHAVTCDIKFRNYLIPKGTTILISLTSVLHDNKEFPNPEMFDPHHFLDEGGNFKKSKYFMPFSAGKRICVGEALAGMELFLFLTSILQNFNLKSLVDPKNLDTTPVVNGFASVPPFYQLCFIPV
Chain of CYP3A4 (P08684 whole entry): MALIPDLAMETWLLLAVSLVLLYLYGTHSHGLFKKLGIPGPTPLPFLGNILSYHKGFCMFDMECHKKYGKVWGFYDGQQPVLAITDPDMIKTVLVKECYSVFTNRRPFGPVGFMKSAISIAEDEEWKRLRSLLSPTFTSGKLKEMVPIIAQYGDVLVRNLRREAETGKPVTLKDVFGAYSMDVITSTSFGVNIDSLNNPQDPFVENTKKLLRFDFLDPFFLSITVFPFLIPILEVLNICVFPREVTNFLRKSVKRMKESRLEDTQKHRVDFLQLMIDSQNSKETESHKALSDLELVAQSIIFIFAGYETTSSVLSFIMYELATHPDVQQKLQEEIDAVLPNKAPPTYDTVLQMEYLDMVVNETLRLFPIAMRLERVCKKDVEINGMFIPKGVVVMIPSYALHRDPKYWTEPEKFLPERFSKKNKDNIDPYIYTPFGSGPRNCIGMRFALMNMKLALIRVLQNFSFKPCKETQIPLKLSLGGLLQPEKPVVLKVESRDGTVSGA
Chain of CYP2D6 (P10635 whole entry): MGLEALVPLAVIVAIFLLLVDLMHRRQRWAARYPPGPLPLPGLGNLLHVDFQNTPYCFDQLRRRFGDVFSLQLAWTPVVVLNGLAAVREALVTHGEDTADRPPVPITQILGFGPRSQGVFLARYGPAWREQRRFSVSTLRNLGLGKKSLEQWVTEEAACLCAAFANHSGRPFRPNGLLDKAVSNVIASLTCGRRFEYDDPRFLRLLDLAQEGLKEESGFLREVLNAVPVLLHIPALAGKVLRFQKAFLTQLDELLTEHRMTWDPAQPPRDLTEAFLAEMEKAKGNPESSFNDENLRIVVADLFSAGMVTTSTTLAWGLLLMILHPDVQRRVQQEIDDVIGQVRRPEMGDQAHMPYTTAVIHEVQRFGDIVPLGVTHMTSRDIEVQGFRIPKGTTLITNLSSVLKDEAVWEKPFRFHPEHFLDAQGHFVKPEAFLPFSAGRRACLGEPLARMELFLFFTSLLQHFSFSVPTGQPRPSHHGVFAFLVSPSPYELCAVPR

As a reminder, the inhibition is the change of the read-out against control, counted positive when it falls. One may read the IC50 as the point on the concentration scale where inhibition reaches its midpoint. As a reminder, the Cmax is the peak of the concentration-time curve. As usually defined, the Tmax is the time at which the peak concentration occurs. What is called AUC(0-inf) is total exposure, with the tail of the curve extrapolated. A word on the CL/F: it is clearance divided by bioavailability, as obtained after extravascular dosing. One may read the ED50 as the dose at which the effect has come halfway, by size or by number of responders. `CCOC(=O)c1c(C)nc(-c2cccc(C#N)c2)n1OCc1ccc(C#N)cc1`: the inhibition at 2 h, 10 µM in series [1] worked out at 7.69%; in [7] it was 3.85%; in series [8], 0.024%; in [9], 4.52%; in [10], 31.7%; in series [11] it was 8.68%. In [12], the inhibition at 2 h, 10 µM was 2.16%. In [2], the IC50 amounted to 4.24 µM. In addition, the Stability in [3] was 90%; in series [4], 93%. Further, the figures for the half-life at 0.2 µM in [5] and in [6] were 0.385 h and 2.01 h, respectively. For the same compound, in [13], the Cmax was determined as 68 ng/mL. The Tmax in series [14] worked out at 0.46 h. The same compound came in with an AUC(0-inf) in [15] of 1140 ng·h/mL. The half-life in series [16] was 13.8 h. In series [17], the Vz was 190.56 L/kg. Besides, the CL/F in series [18] was 207 mL/min/kg. Also, the Activity is 40.7% in series [19] and “Dose-dependent effect” in series [20] (time 7.0 day). Also, the ED50 in series [20] (po, 168 h, time 7 day) stood at 20.8 mg/kg. The Time in series [21] came to 33.94 min.

Take `Cc1nc(-c2cccc(C#N)c2)n(OCc2ccc(C#N)cc2)c1C(=O)O`: the inhibition at 2 h, 10 µM in series [1] was 3.64%; in series [7], 0.11%; in [8] it was 0.41%; in series [9] it was 1.97%; in [10] it was 2.42%; in [11], 6.79%. Besides, the inhibition at 2 h, 10 µM in [12] turned out to be 7.4%. In series [2], the half-maximal inhibitory concentration (IC50) came out at 3.88 µM. Further, the values for the Stability in series [3] and in series [4] were 90% and 73%, respectively. In addition, the half-life at 0.2 µM in [5] and in series [6] was more than 2 h throughout. The compound further yielded a Cmax in series [13] of 214 ng/mL. The Tmax in [14] stood at 0.167 h. For the same compound, the AUC(0-inf) in [15] stood at 809 ng·h/mL. Moreover, the half-life in series [16] was 13.1 h. Also, the Vz in series [17] was 239.6 L/kg. Moreover, the CL/F in series [18] was 261 mL/min/kg.
